Here are results for 12 molecules from ChEMBL document CHEMBL1127997, “Synthesis of new thiazinoindole derivatives and their evaluation as inhibitors of human leukocyte elastase and other related serine proteases” (Bioorg Med Chem Lett, 1994).

Assay [1] addresses T1, Neutrophil elastase (Homo sapiens, UniProt P08246).
T1 sequence (P08246 whole entry): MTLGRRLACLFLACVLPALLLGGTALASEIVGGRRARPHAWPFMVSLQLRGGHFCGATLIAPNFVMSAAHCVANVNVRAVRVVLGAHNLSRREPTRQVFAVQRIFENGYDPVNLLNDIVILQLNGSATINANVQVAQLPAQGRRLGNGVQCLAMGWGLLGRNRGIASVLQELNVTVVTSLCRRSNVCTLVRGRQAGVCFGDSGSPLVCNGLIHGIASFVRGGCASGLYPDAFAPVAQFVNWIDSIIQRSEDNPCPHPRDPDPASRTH
Description: Compound was tested for inhibition of human leukocyte Elastase from human polymorphonuclear leukocytes; not inhibitory at the limit of solubility.

Assay [2] addresses T1, Neutrophil elastase. Description: Compound was tested for inhibition of human leukocyte Elastase at 15 uM concentration from human polymorphonuclear leukocytes.
The target of assay [3] is T1, Neutrophil elastase. Nature of the assay: Compound was tested for inhibition of human leukocyte Elastase at 16 uM concentration from human polymorphonuclear leukocytes.
Assay [4] concerns the target Chymotrypsinogen A (Bos taurus) (UniProt P00766). Description: Compound was tested for inhibitory activity against […] alpha-chymotrypsin. The following applies: concentration not given here.
Assay [5] concerns the target T2, Cathepsin G (Homo sapiens) (UniProt P08311).
T2 sequence (whole entry): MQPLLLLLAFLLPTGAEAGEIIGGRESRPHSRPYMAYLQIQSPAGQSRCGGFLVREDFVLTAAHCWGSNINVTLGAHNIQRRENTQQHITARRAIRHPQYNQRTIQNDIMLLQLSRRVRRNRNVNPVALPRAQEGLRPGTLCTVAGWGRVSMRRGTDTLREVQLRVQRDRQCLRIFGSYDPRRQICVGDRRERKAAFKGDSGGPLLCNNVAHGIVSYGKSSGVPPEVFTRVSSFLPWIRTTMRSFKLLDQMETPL
Nature of the assay: Compound was tested for inhibitory activity against human Cathepsin G. Conditions: concentration not given here.

Assay [6] has as its target T1, Neutrophil elastase. Description: Compound was tested for inhibition of human leukocyte Elastase at 13 uM concentration from human polymorphonuclear leukocytes.
The target of assay [7] is T1, Neutrophil elastase. Nature of the assay: Compound was tested for inhibition of human leukocyte Elastase at 23 uM concentration from human polymorphonuclear leukocytes.
The target of assay [8] is T1, Neutrophil elastase. Nature of the assay: Compound was tested for inhibition of human leukocyte Elastase at 51 uM concentration from human polymorphonuclear leukocytes.
Assay [9] has as its target T1, Neutrophil elastase. Nature of the assay: Compound was tested for inhibition of human leukocyte Elastase at 32 uM concentration from human polymorphonuclear leukocytes.
Assay [10] deals with T1, Neutrophil elastase. Description: Compound was tested for inhibition of human leukocyte Elastase at 64 uM concentration from human polymorphonuclear leukocytes.

For orientation: Ki means the equilibrium dissociation constant of an inhibitor or competing ligand from its target. Read a low Ki as tighter binding. In the case of `CNc1nc2c3ccccc3nc-2c(O)s1`, in assay [1], the Ki result is on record as “No inhibition”.

In assay [2], `O=[N+]([O-])c1ccc(Nc2nc3c4ccccc4nc-3c(O)s2)cc1` returned a Ki of no less than 45 µM.

For `CCNc1nc2c3ccccc3nc-2c(O)s1`, the Ki entry in assay [1] is “No inhibition”.

With `Oc1sc(Nc2cccc(F)c2)nc2c3ccccc3nc1-2`, in [3], the Ki was no less than 72 µM.

As to `CCCNc1nc2c3ccccc3nc-2c(O)s1`, the Ki entry in [1] was “No inhibition”.

As usually defined, the inhibition is the drop in the measured response relative to a control, in per cent. Consider `Oc1sc(Nc2cccc(C(F)(F)F)c2)nc2c3ccccc3nc1-2`, for which the inhibition in assay [4] was found to be 34.2%; in [5] it was 5.3%. The Ki in assay [6] was no less than 30 µM.

In [7], `Oc1sc(Nc2ccc(Cl)cc2)nc2c3ccccc3nc1-2` yielded a Ki of 29 µM.

Consider `Oc1sc(Nc2ccc(F)cc2)nc2c3ccccc3nc1-2`, for which the Ki in [8] is no less than 104 µM.

In assay [3], `Cc1ccc(Nc2nc3c4ccccc4nc-3c(O)s2)cc1` had a Ki of no less than 78 µM.

Take `Oc1sc(Nc2ccccc2F)nc2c3ccccc3nc1-2`: the Ki in [9] is no less than 88 µM.

In the case of `Oc1sc(Nc2ccc(Br)cc2)nc2c3ccccc3nc1-2`, the inhibition constant Ki in assay [6] is no less than 30 µM.

`Oc1sc(Nc2ccccc2)nc2c3ccccc3nc1-2` displayed a Ki in assay [10] of 43 µM. Also, the results for the inhibition in assay [4] and in assay [5] were 13.3% and 11.1%, respectively.
